Reference: paper PMC8383318, “Preclinical Pharmacokinetics, Tissue Distribution, and Primary Safety Evaluation of Indo5, a Novel Selective Inhibitor of c-Met and Trks” (Frontiers in Pharmacology, 2021)

Key:
[1] = system: TrkA; parameters: method as in Luo et al., 2019; details: ref Luo et al., 2019; read-out: half-maximal inhibitory concentration, TrkA kinase activity; cited from earlier work
[2] = Tissue-distribution study in rats; assay type: in vivo, Wistar rats
[3] = Pharmacokinetic study in rat plasma (IV and oral), LC-MS/MS, non-compartmental analysis; assay type: in vivo, Wistar rats
Method: For intravenous (IV) treatment, Indo5 was dissolved in DMSO (solution, 1 mg/ml) and injected into the lateral tail vein of rats (1 mg/kg, n = 3). For intragastric treatment, Indo5 was dissolved in 5% CMC-Na (suspension, 20 mg/ml). The rats were orally administered with Indo5 (100 mg/kg, n = 3) using a 20-G gavage needle. All of the animals were given a standard diet 4 h after the dosing. Blood samples (approximately 400 μl) were collected from each rat and placed into heparinized tubes before the dosing, and at 5, 15, 30, 60, 120, 240, and 480 min after the dosing. Plasma (100 μl) was harvested by centrifuging blood samples at 3,600 g for 10 min at room temperature followed by immediate processing for the analyses.
Briefly, 400 μl acetonitrile was added to 100 μl rat plasma or tissue homogenate, vortexed for 30 s, and centrifuged at 10,000 g for 10 min at room temperature to precipitate proteins. Subsequently, the supernatant (40 μl) was introduced into the HPLC/MS system. Plasma or tissue concentrations of Indo5 were determined using HPLC-MS/MS validated for pharmacokinetics.
The plasma concentration–time data obtained after intravenous and intragastric administrations were subjected to non-compartmental analyses based on the statistical moment theory. Pharmacokinetic parameters were calculated using WinNorlin 5.2 (Certara; www.certara.com/). These parameters included the maximum plasma concentration (Cmax), time to reach Cmax (Tmax), elimination half-life (t1/2), area under the plasma concentration–time curve from time zero to infinity (AUC0–∞), mean residence time (MRT), and clearance (CL). The absolute oral bioavailability was calculated by dividing the AUCtot obtained from oral administration by the AUCtot obtained from IV administration, and the calculation was adjusted using the doses that had been administered via oral and IV routes.

[4] = system: HCC cells; parameters: method as in Luo et al., 2019; details: ref Luo et al., 2019, cited from earlier work
[5] = system: TrkB; parameters: method as in Luo et al., 2019; details: ref Luo et al., 2019; read-out: half-maximal inhibitory concentration, TrkB kinase activity; cited from earlier work
[6] = parameters: species or system mice; details: mouse, in vivo, po, 60 mg/kg
[7] = oral (p.o.) 100 mg/kg in CMC-Na suspension, n = 3

For Cc1ccccc1NS(=O)(=O)c1ccc2c(c1)C(=Cc1nc3ccccc3[nH]1)C(=O)N2 [Indo5, 3-(1H-benzimidazol-2-methylene)-5-(2-methylphenylaminosulfo)-2-indolone], the IC50 [1] is listed as 28 nM, the “crossing of blood–brain and blood–testes barriers” value [2] is listed as “could not cross the blood–brain or blood–testes barriers” and the Tmax ([3]; IV 1 mg/kg) is listed as 1 min. For the same compound, the AUC0-t ([3]; IV 1 mg/kg in DMSO, n = 3) was 158.6 ± 27.9 ng·h/mL, the “AUC0-∞” value ([3]; IV 1 mg/kg in DMSO, n = 3) was 163.4 ± 28.3 ng·h/mL and the CL ([3]; IV 1 mg/kg in DMSO, n = 3) was 6,121.6 ± 1,124.8 ml/h/kg. The Cmax ([3]; IV 1 mg/kg in DMSO, n = 3) was 1,565.3 ± 286.2 ng/ml, the MRT0-t ([3]; IV 1 mg/kg in DMSO, n = 3) was 10.8 ± 2.4 min and the “MRT0-∞” value ([3]; IV 1 mg/kg in DMSO, n = 3) was 15.6 ± 3.6 min. The Tmax ([3]; IV 1 mg/kg in DMSO, n = 3) was 1 min, the t1/2 ([3]; IV 1 mg/kg in DMSO, n = 3) was 37.8 ± 6.6 min and the AUC0-t [3, 7] was 251.5 ± 43.5 ng·h/mL. The “AUC0-∞” value [3, 7] was 255.7 ± 44.9 ng·h/mL, the CL [3, 7] was 391056.4 ± 77,945.8 ml/h/kg and the Cmax [3, 7] was 54.7 ± 10.4 ng/mL. For the same compound, the MRT0-t [3, 7] was 172 ± 36.6 min, the “MRT0-∞” value [3, 7] was 179 ± 37.8 min and the Tmax [3, 7] was 120 ± 28.8 min. The Vd [3, 7] was 706.349 ± 106.9412 L/kg, the t1/2 [3, 7] was 75 ± 14.4 min and the “survival of mice with hepatic orthotopic tumors” value ([4]; hepatic orthotopic tumors) was “increases the survival”. The “growth of HCC cells in xenograft-transplanted mice” value ([4]; xenograft-transplanted mice) was “significantly decreases the growth of HCC cells”, the IC50 [5] was 25 nM and the “histological analysis of liver tissue” value [6] was “no pathological changes”. The “number and frequencies of immune cells in the liver (flow cytometry)” value [6] was “did not affect the number or frequencies of immune cells in the liver”.
